Assay results as given in paper PMC3815892 (Microbial biotechnology, 2012).

Target: Ar‐BVMO (Acinetobacter radioresistens, UniProt D7PBN2)
Test: HPLC product detection
Assay type: biochemical
Conditions: 500 uM substrate, 500 uM NADPH, 0.7 uM enzyme, 37 C, 20 min

## CCc1cc(C(N)=S)ccn1 [ethionamide]
  HPLC product detection (ethionamide S-oxide): confirmed the presence of ethionamide S‐oxide product
